Patent publication US7855166B2, “Sulfonylamino(thio)carbonyl compounds” (Bayer Cropscience GmbH, priority 2005, dated 2010)

Key:
[1] = system: weed plants such as Sinapis alba, Chrysanthemum segetum, Avena sativa, Stellaria media, Echinochloa crus-galli, Lolium multiflorum, Setaria viridis, Abutilon …; experiment: Pre-emergence effect on weeds (greenhouse pot test, visual scoring); assay type: in vivo; details: applied pre-emergence at a rate of 0.3 kg or less of active substance per hectare; scored after 3 to 4 weeks in comparison to untreated controls
[2] = system: weed plants such as Sinapis alba, Echinochloa crus-galli, Lolium multiflorum, Chrysanthemum segetum, Setaria viridis, Abutilon theophrasti, Amaranthus …; experiment: Post-emergence effect on weeds (greenhouse pot test, visual scoring); assay type: in vivo; details: applied post-emergence (three-leaf stage) at a rate of 0.3 kg or less of active substance per hectare; scored after about 3 to 4 weeks in comparison to untreated controls

Question: For `COc1nn(C(=O)NS(=O)(=O)c2c(I)cccc2OC(C)C)c(=O)n1C1CC1` [Compound 1.258], which “herbicidal action against weed plants (visual scoring of plant damage or emergence damage)” value [1] is on record?
Answer: very good herbidical action

Question: What about the “herbicidal action against weed plants (effect scored visually)” value [2] of the same compound?
Answer: very good herbicidal action

Question: Which results are given for `COc1nn(C(=O)NS(=O)(=O)c2ccc(F)cc2I)c(=O)n1C1CC1` [Compound 1.825]?
Answer: herbicidal action against weed plants (visual scoring of plant damage or emergence damage) [1]: very good herbidical action; herbicidal action against weed plants (effect scored visually) [2]: very good herbicidal action

Question: What does the source list for `COc1nn(C(=O)NS(=O)(=O)c2c(I)cccc2OC(C)C)c(=O)n1C` [Compound 1.251]?
Answer: herbicidal action against weed plants (visual scoring of plant damage or emergence damage) [1]: very good herbidical action; herbicidal action against weed plants (effect scored visually) [2]: very good herbicidal action

Question: How did the “herbicidal action against weed plants (visual scoring of plant damage or emergence damage)” value [1] turn out when `CCCOc1nn(C(=O)NS(=O)(=O)c2c(C)cccc2I)c(=O)n1C1CC1` [Compound 1.044] was run?
Answer: very good herbidical action

Question: What about the “herbicidal action against weed plants (effect scored visually)” value [2] of the same compound?
Answer: very good herbicidal action

Question: Which “herbicidal action against weed plants (visual scoring of plant damage or emergence damage)” value [1] does the source give for `COc1nn(C(=O)NS(=O)(=O)c2c(C)cccc2I)c(=O)n1C` [Compound 1.037] here?
Answer: very good herbidical action

Question: What about the “herbicidal action against weed plants (effect scored visually)” value [2] of the same compound?
Answer: very good herbicidal action

Question: `CCOc1nn(C(=O)NS(=O)(=O)c2c(Cl)ccc(Cl)c2I)c(=O)n1C1CC1` [Compound 1.854] was tested. Which “herbicidal action against weed plants (visual scoring of plant damage or emergence damage)” value [1] did it give?
Answer: very good herbidical action

Question: And the “herbicidal action against weed plants (effect scored visually)” value [2]?
Answer: very good herbicidal action

Question: Which results are given for `CCOc1nn(C(=O)NS(=O)(=O)c2c(I)cccc2OC(F)(F)F)c(=O)n1C` [Compound 1.443]?
Answer: herbicidal action against weed plants (visual scoring of plant damage or emergence damage) [1]: very good herbidical action; herbicidal action against weed plants (effect scored visually) [2]: very good herbicidal action

Question: Which “herbicidal action against weed plants (visual scoring of plant damage or emergence damage)” value [1] does the source give for `CCCOc1nn(C(=O)NS(=O)(=O)c2c(I)cccc2OC(F)(F)F)c(=O)n1C` [Compound 1.444] here?
Answer: very good herbidical action

Question: And the “herbicidal action against weed plants (effect scored visually)” value [2]?
Answer: very good herbicidal action

Question: What does the source list for `CCCOc1cccc(I)c1S(=O)(=O)NC(=O)n1nc(OCCC)n(C2CC2)c1=O` [Compound 1.244]?
Answer: herbicidal action against weed plants (visual scoring of plant damage or emergence damage) [1]: very good herbidical action; herbicidal action against weed plants (effect scored visually) [2]: very good herbicidal action

Question: How did the “herbicidal action against weed plants (visual scoring of plant damage or emergence damage)” value [1] turn out when `CCOc1nn(C(=O)NS(=O)(=O)c2cc(C(F)(F)F)ccc2I)c(=O)n1C` [Compound 1.836] was run?
Answer: very good herbidical action

Question: What about the “herbicidal action against weed plants (effect scored visually)” value [2] of the same compound?
Answer: very good herbicidal action

Question: How did the “herbicidal action against weed plants (visual scoring of plant damage or emergence damage)” value [1] turn out when `CCCOc1nn(C(=O)NS(=O)(=O)c2c(OC)ccc(Cl)c2I)c(=O)n1C1CC1` [Compound 1.822] was run?
Answer: very good herbidical action

Question: And the “herbicidal action against weed plants (effect scored visually)” value [2]?
Answer: very good herbicidal action

Question: With `CCOc1nn(C(=O)NS(=O)(=O)c2c(I)cccc2OC(C)C)c(=O)n1C1CC1` [Compound 1.261] as the compound, how does the “herbicidal action against weed plants (visual scoring of plant damage or emergence damage)” value [1] read?
Answer: very good herbidical action

Question: And the “herbicidal action against weed plants (effect scored visually)” value [2]?
Answer: very good herbicidal action

Question: For `CCCOc1nn(C(=O)NS(=O)(=O)c2c(I)cccc2OCC(F)F)c(=O)n1C` [Compound 1.505], which “herbicidal action against weed plants (visual scoring of plant damage or emergence damage)” value [1] is on record?
Answer: very good herbidical action

Question: And the “herbicidal action against weed plants (effect scored visually)” value [2]?
Answer: very good herbicidal action

Question: What does the source list for `CC(C)Oc1nn(C(=O)NS(=O)(=O)c2c(I)cccc2C(F)(F)F)c(=O)n1C` [Compound 1.138]?
Answer: herbicidal action against weed plants (visual scoring of plant damage or emergence damage) [1]: very good herbidical action; herbicidal action against weed plants (effect scored visually) [2]: very good herbicidal action

Question: How did the “herbicidal action against weed plants (visual scoring of plant damage or emergence damage)” value [1] turn out when `CCOc1nn(C(=O)NS(=O)(=O)c2c(I)cccc2OCC2CC2)c(=O)n1C` [Compound 1.349] was run?
Answer: very good herbidical action

Question: And the “herbicidal action against weed plants (effect scored visually)” value [2]?
Answer: very good herbicidal action

Question: Which results are given for `CCCOc1nn(C(=O)NS(=O)(=O)c2ccc(Cl)cc2I)c(=O)n1C` [Compound 1.871]?
Answer: herbicidal action against weed plants (visual scoring of plant damage or emergence damage) [1]: very good herbidical action; herbicidal action against weed plants (effect scored visually) [2]: very good herbicidal action

Question: How did the “herbicidal action against weed plants (visual scoring of plant damage or emergence damage)” value [1] turn out when `COc1cccc(I)c1S(=O)(=O)NC(=O)n1nc(OC)n(C2CC2)c1=O` [Compound 1.198] was run?
Answer: very good herbidical action

Question: And the “herbicidal action against weed plants (effect scored visually)” value [2]?
Answer: very good herbicidal action

Question: What does the source list for `CCCCOc1cccc(I)c1S(=O)(=O)NC(=O)n1nc(OCCC)n(C)c1=O` [Compound 1.275]?
Answer: herbicidal action against weed plants (visual scoring of plant damage or emergence damage) [1]: very good herbidical action; herbicidal action against weed plants (effect scored visually) [2]: very good herbicidal action

Question: How did the “herbicidal action against weed plants (visual scoring of plant damage or emergence damage)” value [1] turn out when `CCCOc1nn(C(=O)NS(=O)(=O)c2c(I)cccc2OCC(F)(F)C(F)(F)F)c(=O)n1C` [Compound 1.549] was run?
Answer: very good herbidical action

Question: And the “herbicidal action against weed plants (effect scored visually)” value [2]?
Answer: very good herbicidal action

Question: How did the “herbicidal action against weed plants (visual scoring of plant damage or emergence damage)” value [1] turn out when `CCCOc1cccc(I)c1S(=O)(=O)NC(=O)n1nc(OC)n(C)c1=O` [Compound 1.231] was run?
Answer: very good herbidical action

Question: What about the “herbicidal action against weed plants (effect scored visually)” value [2] of the same compound?
Answer: very good herbicidal action

Question: `CCOc1nn(C(=O)NS(=O)(=O)c2c(I)cccc2OC(F)(F)F)c(=O)n1C1CC1` [Compound 1.450] was tested. Which “herbicidal action against weed plants (visual scoring of plant damage or emergence damage)” value [1] did it give?
Answer: very good herbidical action

Question: What about the “herbicidal action against weed plants (effect scored visually)” value [2] of the same compound?
Answer: very good herbicidal action
